Consider four compounds from patent US10737072B2, “Control catheters and methods for pulmonary suffusion and related therapies” (SUFFUSION TECHNOLOGIES LLC, priority 2012, dated 2020).

Series [1] deals with primary and metastatic cancer. The conditions noted are these: et al., cited from earlier work.
In series [2] the test system is primary and metastatic cancer. The following applies: et al., cited from earlier work. The source holds these as a separate data set.
In series [3] the test system is stage IV NSCLC. The following applies: cited from earlier work.
For series [4], the system named is stage IV NSCLC. The series can be described thus: Thoracoscopic lung suffusion, phase I clinical trial. Type of series: in vivo, human. From the text:
The term “suffusion” has been defined as the slow diffuse permeation of the tissues by an injectate during arterial or venous occlusion. Unlike methods for arterial infusion or isolated perfusion, those for suffusion require neither permanent occlusion nor recirculation. The technique involves isolating chemotherapy into the lung by interventional radiologic control of the pulmonary artery and endoscopic control of the pulmonary veins. The suffusion method was first described in a canine model in 2002. A minimally invasive approach and its short-term potential were established using a non-toxic tracer compound. Rapid permeation of the lung and 75% of tracer remaining isolated the lung for 30 minutes was observed.
One phase I clinical trial on four stage IV NSCLC patients has been conducted.

The mark [5] stands for this setting: Burt, 2000, 8 cases of metastatic sarcoma.
Setting [6] is: Schroder, 2002, 4 cases of metastatic sarcoma, following metastectomy.
The mark [7] stands for this setting: Hendriks, 2004, 16 cases of resectable pulmonary metastases, followed by metastectomy.

Where two headings read alike, the source gives them in different places.

As for `COc1cccc2c1C(=O)c1c(O)c3c(c(O)c1C2=O)C[C@@](O)(C(=O)CO)C[C@@H]3O[C@H]1C[C@H](N)[C@H](O)[C@H](C)O1` [Doxorubicin], in series [1] (setting [5]), the “Pulmonary fibrosis (number of cases)” value is recorded as “fibrosis (1), cases”; the “reduced pulmonary function (number of cases)” value was “function (7) cases”; the response is 0% response.

As for `N.N.[Cl][Pt][Cl]` [Cisplatin], in series [1] (Ratto, 1996, 6 cases of metastatic sarcoma), the “Interstitial and alveolar edema (number of cases)” value was “(2) cases”. In addition, in series [1] (setting [6]), the “disease-free after 1 year” value is given as 75% disease-; the “localized pulmonary edema (number of cases)” value is on record as “(4), reduced cases”; the “reduced pulmonary function at 3 weeks (number of cases)” value is recorded as “weeks (3) cases”. The complete response in series [2] (So, 2004, 3 cases of locally advanced NSCLC, and carinal resection) is recorded as 100% complete. Moreover, in the series on stage IV NSCLC [3] (Demmy, et al., 2009, 4 cases of stage IV NSCLC, with systemic chemotherapy), the “reduction in tumor volume” value is 14%-96%. Also, the Tumor volume reduced with stage IV NSCLC [3] (four stage IV NSCLC patients, systemic chemotherapy began within 2 weeks of the suffusion) was 14% to 96%. Besides, the “patients who could not tolerate suffusion” value in the series on stage IV NSCLC [4] (total of ten patients treated by suffusion (unpublished data)) is given as “One of 10”. Further, in the series on stage IV NSCLC [4] (unpublished data, growth of tumor in other parts of the body despite systemic chemotherapy), the “patients with evaluable disease showing control or reduction of the main tumor in the suffused lung” value was 4 of 5.

On to `CO[C@@]12[C@H](COC(N)=O)C3=C(C(=O)C(C)=C(N)C3=O)N1C[C@@H]1N[C@@H]12` [Mitomycin C], for which, in series [2] (Neyazaki, 1969, 27 cases), the “tumor volume reduced in” value was 52%.

In the case of `N[C@@H](Cc1ccc(N(CCCl)CCCl)cc1)C(=O)O` [Melphalan], in series [1] (setting [7]), the “Chemical pneumonitis (number of cases)” value is “pneumonitis (2), cases”; the “localized pulmonary edema (number of cases)” value is “(3), pneumonia cases”; the “pneumonia (number of cases)” value is on record as “(1), cases”; the “pneumothorax (number of cases)” value is on record as “pneumothorax (1) cases”.
